Assay results taken from patent US20200268864A1, “CANCER VACCINE COMPOSITIONS AND METHODS FOR USING SAME TO TREAT CANCER” (Dana-Farber Cancer Institute, Inc., priority 2017, published 2020).
“Also recorded” adds a separate entry of the source.

Tested on: PBM tumors (Trp53−/−; Brca1−/−; c-Myc)
Test: Orthotopic PBM tumor allograft growth and survival (bioluminescence)
Format: in vivo, mouse
Method: All animal experiments described in this study were performed according to the animal protocols approved by the DFCI Institutional Animal Care and Use Committee. Brca1^loxP/loxP [FVB/N] mice, bearing loxP sites in introns 4 and 13 of the Brca1 gene, and Trp53^loxP/loxP[FVB/N] mice bearing loxP in introns 2 and 10 of the p53 gene, were obtained from Dr. Jos Jonkers's laboratory (Netherlands Cancer Institute, Amsterdam, The Netherlands). These mice were intercrossed through multiple generations to create a colony of homozygous Trp53^loxP/loxP/Brca1^loxP/loxP double conditional knockout mice. Ovaries were harvested from 8-week-old female Trp53^loxP/loxP/Brca1^loxP/loxP mice. The ovaries were washed twice with phosphate-buffered and incubated in DMEM/F12 (Ham's) medium containing collagenase and dispase (stem cell technologies) for 40 min at 37° C. The epithelial cells were pelleted by centrifugation at 800×g and cultured in DMEM/F12 (Life Technologies) supplemented with 4% (vol/vol) FBS, 1% penicillin/streptomycin, 10 ng/mL EGF, 5 μg/mL insulin, 5 Cpg/mL transferrin, and 5 ng/mL sodium selenite. Ovarian surface epithelial (OSE) cells were cultured for 48 hr and then introduced with Adeno-Cre (University of Iowa) and lentiviruses expressing C-Myc gene (Addgene #36980) or control GFP. After two days of infection in vitro, OSE cells are aggregated and implanted into recipient mice. About 5×10^5 OSE cells (Trp53^−/−; Brca1^−/−; c-Myc) were injected into the right ovarian bursal cavities of 6- to 7-week-old female nude mice. In each mouse, the left ovarian bursa was injected with GFP-expressing OSE cells (Trp53^−/−; Brca1^−/−; GFP). PBM (Trp53^−/−; Brca1^−/−; c-Myc) ovarian tumors developed within three to six months after implantation of the genetically engineered OSE cells. The primary ovarian tumors were digested and orthotopically transplanted to FVB/NJ mice. The PPM GEM model (Trp53^−/−; Pten^−/−; c-Myc) was developed with OSE cells isolated from homozygous Trp53^loxP/loxP/Pten^loxP/loxP(FVB/NJ) double conditional knockout mice using the same strategy for generation of the PBM GEM model described above. For histological analysis, tumor pieces were fixed in 10% Formalin overnight and transferred to 70% ethanol. Embedding, sectioning and H&E staining was performed by scientists at the Harvard rodent histopathology core facility. The histological characteristics of high grade ovarian tumor were confirmed by two independent pathologists at Harvard Medical School.
Single cells were obtained by digestion of primary ovarian tumors in collagenase buffer and then cultured in MOT media (DMEM/F12, 0.6% FBS, 10 ng/ml EGF, hydrocortisone 1 μg/ml, cholera toxin 1 ng/ml, 100 μg/ml penicillin-streptomycin, 5 μM Y27632). […] The endpoints were determined by tumor burden and ascites. […]

Structure (SMILES): O=C(c1cc(Cc2n[nH]c(=O)c3ccccc23)ccc1F)N1CCN(C(=O)C2CC2)CC1 [olaparib, Olaparib]
- tumor growth / tumor progression (tumor burden by bioluminescence) (PBM tumor-bearing FVB mice, olaparib 50 mg/kg daily i.p., anti-PD-1 250 μg/mouse i.p. every 3 days): significantly delayed tumor progression; also recorded: delayed tumor growth; also recorded: effectively inhibit the growth
- therapeutic effect of olaparib in Rag1−/− host mice (PBM tumors in Rag1−/− vs wild-type FVB mice): partially abrogated
- survival of PBM tumor-bearing mice (mouse, in vivo): significantly prolonged the survival; also recorded: eventually succumbed to the disease
